For 14 molecules, IC50 results are on record in US10519152B2, “Compounds and their use in treating cancer” (AstraZeneca AB, priority 2017, dated 2019).

A word on the IC50: it is the concentration needed to halve the response being measured.

For the assay, the target named is T1, recombinant human Estrogen Receptor alpha ligand binding domain, residues 307-554 (ER alpha-LBD (GST)) (Homo sapiens, UniProt P03372).
T1 construct: made in house
T1 sequence (P03372 307-554): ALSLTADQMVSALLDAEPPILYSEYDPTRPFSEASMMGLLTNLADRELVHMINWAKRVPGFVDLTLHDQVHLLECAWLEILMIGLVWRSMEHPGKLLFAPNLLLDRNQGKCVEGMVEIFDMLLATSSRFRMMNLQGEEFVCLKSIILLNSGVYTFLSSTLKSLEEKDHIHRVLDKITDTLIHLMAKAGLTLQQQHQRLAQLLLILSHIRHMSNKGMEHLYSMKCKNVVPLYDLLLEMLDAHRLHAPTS
The assay is described as follows: ERα binding assay (LanthaScreen TR-FRET competition). As to conditions: TR-FRET competition with Fluormone ES2 tracer, 4 hours at room temperature; single experiment or average of two or more.
On to `Cc1ncsc1-c1ccc(CNC(=O)[C@@H]2C[C@@H](O)CN2C(=O)[C@@H](NC(=O)COCC/C=C/CCOc2cc(F)c([C@@H]3c4[nH]c5ccccc5c4C[C@@H](C)N3CC(C)(C)F)c(F)c2)C(C)(C)C)cc1` [Example 22, (2S,4R)-1-((S)-2-(2-(((E)-6-(3,5-Difluoro-4-((1R,3R)-2-(2-fluoro-2-methylpropyl)-3-methyl-2,3,4,9-tetrahydro-1H-pyrido[3,4-b]indol-1-yl)phenoxy)hex-3-en-1-yl)oxy)acetamido)-3,3-dimethylbutanoyl)-4-hydroxy-N-(4-(4-methylthiazol-5-yl)benzyl)pyrrolidine-2-carboxamide], for which the IC50 worked out at 0.7 nM.

With `Cc1ncsc1-c1ccc(CNC(=O)[C@@H]2C[C@@H](O)CN2C(=O)[C@@H](NC(=O)COCCC(F)(F)CCOc2cc(F)c([C@@H]3c4[nH]c5ccccc5c4C[C@@H](C)N3CC(C)(C)F)c(F)c2)C(C)(C)C)cc1` [Example 130, (2S,4R)-1-((S)-2-(2-((5-(3,5-Difluoro-4-((1R,3R)-2-(2-fluoro-2-methylpropyl)-3-methyl-2,3,4,9-tetrahydro-1H-pyrido[3,4-b]indol-1-yl)phenoxy)-3,3-difluoropentyl)oxy)acetamido)-3,3-dimethylbutanoyl)-4-hydroxy-N-(4-(4-methylthiazol-5-yl)benzyl)pyrrolidine-2-carboxamide], the IC50 turned out to be 0.9 nM.

For `Cc1ncsc1-c1ccc(CNC(=O)[C@@H]2C[C@@H](O)CN2C(=O)[C@@H](NC(=O)CCCOCCCCCCOc2cc(F)c([C@@H]3c4[nH]c5ccccc5c4C[C@@H](C)N3CC(C)(C)F)c(F)c2)C(C)(C)C)cc1` [Example 112, (2S,4R)-1-((S)-2-(4-((6-(3,5-difluoro-4-((1R,3R)-2-(2-fluoro-2-methylpropyl)-3-methyl-2,3,4,9-tetrahydro-1H-pyrido[3,4-b]indol-1-yl)phenoxy)hexyl)oxy)butanamido)-3,3-dimethylbutanoyl)-4-hydroxy-N-(4-(4-methylthiazol-5-yl)benzyl)pyrrolidine-2-carboxamide], the 50% inhibitory concentration (IC50) amounted to 0.5 nM.

Consider `Cc1ncsc1-c1ccc(CNC(=O)[C@@H]2C[C@@H](O)CN2C(=O)[C@@H](NC(=O)CCCCCCCOCCOc2cc(F)c([C@@H]3c4[nH]c5ccccc5c4C[C@@H](C)N3CC(C)(C)F)c(F)c2)C(C)(C)C)cc1` [Example 111, (2S,4R)-1-((S)-2-(8-(2-(3,5-Difluoro-4-((1R,3R)-2-(2-fluoro-2-methylpropyl)-3-methyl-2,3,4,9-tetrahydro-1H-pyrido[3,4-b]indol-1-yl)phenoxy)ethoxy)octanamido)-3,3-dimethylbutanoyl)-4-hydroxy-N-(4-(4-methylthiazol-5-yl)benzyl)pyrrolidine-2-carboxamide], for which the IC50 was found to be 0.6 nM.

Turning to `Cc1ncsc1-c1ccc(CNC(=O)[C@@H]2C[C@@H](O)CN2C(=O)[C@@H](NC(=O)C2(OCCCCCCOc3cc(F)c([C@@H]4c5[nH]c6ccccc6c5C[C@@H](C)N4CC(C)(C)F)c(F)c3)CC2)C(C)(C)C)cc1` [Example 118, (2S,4R)-1-((S)-2-(1-((6-(3,5-difluoro-4-((1R,3R)-2-(2-fluoro-2-methylpropyl)-3-methyl-2,3,4,9-tetrahydro-1H-pyrido[3,4-b]indol-1-yl)phenoxy)hexyl)oxy)cyclopropane-1-carboxamido)-3,3-dimethylbutanoyl)-4-hydroxy-N-(4-(4-methylthiazol-5-yl)benzyl)pyrrolidine-2-carboxamide], the half-inhibitory concentration (IC50) turned out to be 0.7 nM.

In the case of `Cc1ncsc1-c1ccc([C@H](C)NC(=O)[C@@H]2C[C@@H](O)CN2C(=O)[C@@H](NC(=O)C(F)(F)OCCCOCCCOc2cc(F)c([C@@H]3c4[nH]c5ccccc5c4C[C@@H](C)N3CC(C)(C)F)c(F)c2)C(C)(C)C)cc1` [Example 120, (2S,4R)-1-((S)-2-(2-(3-(3-(3,5-Difluoro-4-((1R,3R)-2-(2-fluoro-2-methylpropyl)-3-methyl-2,3,4,9-tetrahydro-1H-pyrido[3,4-b]indol-1-yl)phenoxy)propoxy)propoxy)-2,2-difluoroacetamido)-3,3-dimethylbutanoyl)-4-hydroxy-N—((S)-1-(4-(4-methylthiazol-5-yl)phenyl)ethyl)pyrrolidine-2-carboxamide], the IC50 is 0.9 nM.

In the case of `Cc1ncsc1-c1ccc([C@H](C)NC(=O)[C@@H]2C[C@@H](O)CN2C(=O)[C@@H](NC(=O)COCCCCCOCCOc2cc(F)c([C@@H]3c4[nH]c5ccccc5c4C[C@@H](C)N3CC(C)(C)F)c(F)c2)C(C)(C)C)cc1` [Example 157, (2S,4R)-1-((S)-2-(2-((5-(2-(3,5-Difluoro-4-((1R,3R)-2-(2-fluoro-2-methylpropyl)-3-methyl-2,3,4,9-tetrahydro-1H-pyrido[3,4-b]indol-1-yl)phenoxy)ethoxy)pentyl)oxy)acetamido)-3,3-dimethylbutanoyl)-4-hydroxy-N—((S)-1-(4-(4-methylthiazol-5-yl)phenyl)ethyl)pyrrolidine-2-carboxamide], the concentration for half-maximal inhibition (IC50) came out at 0.8 nM.

Take `Cc1ncsc1-c1ccc(CNC(=O)[C@@H]2C[C@@H](O)CN2C(=O)[C@@H](NC(=O)CCCCCOCCCCOc2cc(F)c([C@@H]3c4[nH]c5ccccc5c4C[C@@H](C)N3CC(C)(C)F)c(F)c2)C(C)(C)C)cc1` [Example 109, (2S,4R)-1-((S)-2-(6-(4-(3,5-difluoro-4-((1R,3R)-2-(2-fluoro-2-methylpropyl)-3-methyl-2,3,49-tetrahydro-1H-pyrido[3,4-b]indol-1-yl)phenoxy)butoxy)hexanamido)-3,3-dimethylbutanoyl)-4-hydroxy-N-(4-(4-methylthiazol-5-yl)benzyl)pyrrolidine-2-carboxamide]: the IC50 is 0.6 nM.

Consider `Cc1ncsc1-c1ccc(CNC(=O)[C@@H]2C[C@@H](O)CN2C(=O)[C@@H](NC(=O)COCc2ccc(C(=O)Nc3cc(F)c([C@@H]4c5[nH]c6ccccc6c5C[C@@H](C)N4CC(C)(C)F)c(F)c3)nc2)C(C)(C)C)cc1` [Example 144, N-(3,5-Difluoro-4-((1R,3R)-2-(2-fluoro-2-methylpropyl)-3-methyl-2,3,4,9-tetrahydro-1H-pyrido[3,4-b]indol-1-yl)phenyl)-5-((2-(((S)-1-((2S,4R)-4-hydroxy-2-((4-(4-methylthiazol-5-yl)benzyl)carbamoyl)pyrrolidin-1-yl)-3,3-dimethyl-1-oxobutan-2-yl)amino)-2-oxoethoxy)methyl)picolinamide], for which the IC50 worked out at 1.3 nM.

Turning to `Cc1ncsc1-c1ccc(CNC(=O)[C@@H]2C[C@@H](O)CN2C(=O)[C@@H](NC(=O)C(F)(F)OCCCCCCOc2cc(F)c([C@@H]3c4[nH]c5ccccc5c4C[C@@H](C)N3CC(C)(C)F)c(F)c2)C(C)(C)C)cc1` [Example 116, (2S,4R)-1-((S)-2-(2-((6-(3,5-Difluoro-4-((1R,3R)-2-(2-fluoro-2-methylpropyl)-3-methyl-2,3,4,9-tetrahydro-1H-pyrido[3,4-b]indol-1-yl)phenoxy)hexyl)oxy)-2,2-difluoroacetamido)-3,3-dimethylbutanoyl)-4-hydroxy-N-(4-(4-methylthiazol-5-yl)benzyl)pyrrolidine-2-carboxamide], the IC50 turned out to be 1 nM.

On to `Cc1ncsc1-c1ccc([C@H](C)NC(=O)[C@@H]2C[C@@H](O)CN2C(=O)[C@@H](NC(=O)COCCOCCCCCOc2cc(F)c([C@@H]3c4[nH]c5ccccc5c4C[C@@H](C)N3CC(F)(F)F)c(F)c2)C(C)(C)C)cc1` [Example 140, (2S,4R)-1-((S)-2-(2-(2-((5-(3,5-Difluoro-4-((1R,3R)-3-methyl-2-(2,2,2-trifluoroethyl)-2,3,4,9-tetrahydro-1H-pyrido[3,4-b]indol-1-yl)phenoxy)pentyl)oxy)ethoxy)acetamido)-3,3-dimethylbutanoyl)-4-hydroxy-N—((S)-1-(4-(4-methylthiazol-5-yl)phenyl)ethyl)pyrrolidine-2-carboxamide], for which the IC50 came out at 0.5 nM.

Turning to `Cc1ncsc1-c1ccc(CNC(=O)[C@@H]2C[C@@H](O)CN2C(=O)[C@@H](NC(=O)COCCCCCCCCOc2ccc([C@@H]3c4[nH]c5ccccc5c4C[C@@H](C)N3CC(F)F)nc2)C(C)(C)C)cc1` [Example 13, (2S,4R)-1-((S)-2-(2-((8-((6-((1S,3R)-2-(2,2-Difluoroethyl)-3-methyl-2,3,4,9-tetrahydro-1H-pyrido[3,4-b]indol-1-yl)pyridin-3-yl)oxy)octyl)oxy)acetamido)-3,3-dimethylbutanoyl)-4-hydroxy-N-(4-(4-methylthiazol-5-yl)benzyl)pyrrolidine-2-carboxamide], the IC50 came out at 5 nM.

Turning to `Cc1ncsc1-c1ccc(CNC(=O)[C@@H]2C[C@@H](O)CN2C(=O)[C@@H](NC(=O)CCCCCCOCCCOc2cc(F)c([C@@H]3c4[nH]c5ccccc5c4C[C@@H](C)N3CC(C)(C)F)c(F)c2)C(C)(C)C)cc1` [Example 110, (2S,4R)-1-((S)-2-(7-(3-(3,5-difluoro-4-((1R,3R)-2-(2-fluoro-2-methylpropyl)-3-methyl-2,3,4,9-tetrahydro-1H-pyrido[3,4-b]indol-1-yl)phenoxy)propoxy)heptanamido)-3,3-dimethylbutanoyl)-4-hydroxy-N-(4-(4-methylthiazol-5-yl)benzyl)pyrrolidine-2-carboxamide], the IC50 is 0.7 nM.

For `Cc1ncsc1-c1ccc(CNC(=O)[C@@H]2C[C@@H](O)CN2C(=O)[C@@H](NC(=O)COCCCCCOCCOc2cc(F)c([C@@H]3c4[nH]c5ccccc5c4C[C@@H](C)N3CC(C)(C)F)c(F)c2)C(C)(C)C)cc1` [Example 9, (2S,4R)-1-((S)-2-(2-((5-(2-(3,5-Difluoro-4-((1R,3R)-2-(2-fluoro-2-methylpropyl)-3-methyl-2,3,4,9-tetrahydro-1H-pyrido[3,4-b]indol-1-yl)phenoxy)ethoxy)pentyl)oxy)acetamido)-3,3-dimethylbutanoyl)-4-hydroxy-N-(4-(4-methylthiazol-5-yl)benzyl)pyrrolidine-2-carboxamide], the IC50 is 0.8 nM.
